Measurements as given in US5393897A, “Isolation and structure of spongistatins 5,7,8 and 9” (Arizona Board of Regents acting on behalf of Arizona State …, priority 1993, dated 1995).

What was measured:
Experiment in all cases: NCI cell line panel
Assay type in all cases: cell-based
UACC-62 = conditions: Homo sapiens, UACC-62, read-out: Log10 GI50 (converted)
Description: (§1) Only two hundred years ago, many diseases ravaged humankind. Many of these diseases now have been controlled or eradicated. In the development of the means to treat or control these diseases, work with the appropriate common experimental animals was of critical importance. With the various types of cancers, and with the HIV virus, such work is presently ongoing. The research for the treatment of various types of cancer is coordinated in the United States by the National Cancer Institute (NCI). NCI, as a government entity, has been charged with assisting anti-cancer research. To establish whether a substance has anti-cancer activity, NCI has established a variety of protocols, one of which involves testing the candidate substance against a cell line panel containing 60 human tumor cell lines. This protocol has been verified and is generally accepted throughout the scientific community. This protocol and the established statistical means of evaluating the results obtained therefrom have been fully described in the literature. See Principles & Practice of Oncology PPO Updates, Volume 3, Number 10, October 1989, by Michael R. Boyd, M.D., Ph.D., for an in depth description of the test protocol. The statistical analysis is explained in "Display and Analysis of Patterns of Differential Activity of Drugs Against Human Tumor Cell Lines: Development of Means Graph and COMPARE Algorithm" Journal of the National Cancer Institute Reports Vol. 81, No. 14, Pg. 1088, Jul. 14, 1989, by K. D. Paull et al. Both of these references are incorporated herein by this reference thereto. The effectiveness and validity of the NCI in vitro protocol continues to be verified.

HCT-116 = conditions: Homo sapiens, Colon Cancer, read-out: Log10 GI50 (converted)
Description: as §1

NCI-H522 = conditions: Homo sapiens, Non-Small Cell Lung Cancer, read-out: Log10 GI50 (converted)
Description: as §1

KM12 = conditions: Homo sapiens, KM12, read-out: Log10 GI50 (converted)
Description: as §1

MDA-N = conditions: Homo sapiens, Breast Cancer, read-out: Log10 GI50 (converted)
Description: as §1

MDA-MB-435 = conditions: Homo sapiens, Breast Cancer, read-out: Log10 GI50 (converted)
Description: as §1

What does the source list for `C=C/C=C/C(O)CC(=C)CC1OC2C(C)C(OC(=O)CC3CC(O)CC4(CC(C)(O)CC(C=C5COC(C(C)C(=O)CC6CC(OC)CC7(CC(O)CC(/C=C\CCCC8OC(O)(CC(O)C8C)C2O)O7)O6)C5C)O4)O3)C1O` (stereo not drawn) [spongistatin 7]?
GI50 (UACC-62): 0.309 nM; GI50 (HCT-116): 0.288 nM; GI50 (NCI-H522): 0.0282 nM; GI50 (KM12): 0.219 nM; GI50 (MDA-N): 0.0151 nM; GI50 (MDA-MB-435): 0.0191 nM
